Data as given in patent US4241066A, “14-Amino derivatives of morphine, methods of making them and analgesic compositions containing them” (priority 1977, dated 1980).

Legend:
[1] = tested on: opiate receptor; experiment: in vivo agonist test in the rat, tail pressure as nociceptive stimulus (Green and Young); details: administered subcutaneously
Protocol: The compounds have been screened for agonist activity in the rat using tail pressure as the nociceptive stimulus as described by Green, H. F., and Young, P. A., Br. J. Pharmac. Chemother., 6, 572 (1951) and for morphine antagonist activity in rat using a tail flick test modified from the method described for mice by Ben Bassat et al (Arch Int. Pharmacoldyn. 122, 434 [1959]). The nociceptive stimulus in this test is a hot water bath (55° C.).

[2] = target: T1, opiate receptor (Rattus norvegicus, UniProt P33535); format: in vivo; details: tail flick, hot water bath 55° C., administered subcutaneously
T1 construct: from tissue; host or cells: living rat (whole animal, subcutaneous dosing)
T1 sequence (P33535 whole entry): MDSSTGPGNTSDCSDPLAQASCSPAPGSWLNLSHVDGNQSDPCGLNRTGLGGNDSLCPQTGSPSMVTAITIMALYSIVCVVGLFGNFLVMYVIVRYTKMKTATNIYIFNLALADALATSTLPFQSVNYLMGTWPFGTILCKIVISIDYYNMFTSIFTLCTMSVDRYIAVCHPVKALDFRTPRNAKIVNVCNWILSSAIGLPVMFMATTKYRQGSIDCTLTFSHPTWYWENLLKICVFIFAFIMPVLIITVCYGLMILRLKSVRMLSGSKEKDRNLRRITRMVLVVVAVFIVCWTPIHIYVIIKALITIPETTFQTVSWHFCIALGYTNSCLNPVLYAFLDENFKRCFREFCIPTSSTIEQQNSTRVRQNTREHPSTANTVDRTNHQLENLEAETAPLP
Protocol: Chemother., 6, 572 (1951) and for morphine antagonist activity in rat using a tail flick test modified from the method described for mice by Ben Bassat et al (Arch Int. Pharmacoldyn. 122, 434 [1959]). The nociceptive stimulus in this test is a hot water bath (55° C.).

Compound | ED50 (agonist, antinociceptive) [1] [mg/kg] | AD50 (morphine antagonist) [2] [mg/kg]
CCCCCCN[C@@]12C=CC(=O)[C@@H]3Oc4c(OC)ccc5c4[C@@]31CCN(CC1CC1)[C@@H]2C5 [Example 38] | 1.92 | –
CCCCCC(=O)N[C@@]12C=CC(=O)[C@@H]3Oc4c(O)ccc5c4[C@@]31CCN(CC1CC1)[C@@H]2C5 [Example 54] | 0.0036 | –
O=CN[C@@]12C=CC(=O)[C@@H]3Oc4c(O)ccc5c4[C@@]31CCN(CC1CC1)[C@@H]2C5 [Example 49] | – | 0.132
O=C1C=C[C@@]2(NCC3CC3)[C@H]3Cc4ccc(O)c5c4[C@@]2(CCN3CC2CC2)[C@H]1O5 [Example 48] | – | 0.0027
CN1CC[C@]23c4c5ccc(O)c4O[C@H]2[C@@H](O)C=C[C@H]3[C@H]1C5 [morphine] | 0.66 | –
